These results are taken from the METLIN SMRT retention time set (Domingo-Almenara et al. 2019).

The data set in a line: gradient 5% acetonitrile 3 min, to 50% in 2 min, to 85% in 15 min, held 3 min, 100 µL/min. As to conditions: column: Zorbax Extend-C18 2.1 x 50 mm; eluents: water / acetonitrile, 0.1% formic acid. Put shortly: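 Data were gathered over 3 months by HPLC coupled to a quadrupole time-of-flight mass spectrometer, operated in positive and negative ionization mode. Mixtures of ~100 pure standards ran on a Zorbax Extend-C18 column (2.1 × 50 mm, 1.8 μm) at 100 μL/min, with water and acetonitrile each containing 0.1% formic acid and dead and dwell volumes of 40 μL and 900 μL. Retention time was read from adduct peaks picked by computer and checked manually.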
The molecule `Cc1ccc(-c2ccc(=O)n(CCc3nc(-c4ccc5c(c4)OCO5)no3)n2)cc1C` registered an RP-LC retention time of 1020 s.
With `O=C(Cn1ccn2nc(-c3ccc(F)cc3)c(CO)c2c1=O)Nc1ccc(F)cc1F` the figure was 821 s; with `c1ccc(-c2n[nH]c(C3CCCN3)n2)cc1` (stereo not given), 546 s.
In the case of `CCNC(=O)N1CC(c2nc(-c3ccc(F)cc3)no2)C2(CCOCC2)C1` (stereo not given), the RP-LC retention time is 751 s.
`O=C(C1=CN(c2ccc3c(c2)OCO3)c2cc(F)ccc2S1(=O)=O)N1CCCC1`: the RP-LC retention time amounted to 796 s.
In turn, `CC(C)NC(=O)c1ccc(OCC2CCN(C(=O)c3ccsc3)CC2)cc1` showed an RP-LC retention time of 797 s.
In the case of `Cc1csc(-c2cc(S(=O)(=O)NCCCN3CCC(C)CC3)c(C)s2)n1` it was 675 s; in that of `Cc1ccccc1-c1noc(CCn2nc(-c3ccccc3)ccc2=O)n1`, 1000 s.
In the case of `COc1ncc(C(=O)Nc2ccc(F)c(Cl)c2)c(C)n1` it was 825 s.
Turning to `CCc1cccc(C)c1NC(=O)C1CCCN(c2nnc(C)c3c(C)n(-c4ccccc4)nc23)C1` (stereo not given), the RP-LC retention time amounted to 775 s.
As for `Cc1cc(NC(=O)C2(C)Oc3cccnc3NC2=O)ccc1F` (stereo not given), the RP-LC retention time came to 739 s.
In the case of `Cc1ccc(C)c(N2CCN(C(=O)Cn3cccc3-c3nnc(C4CC4)o3)CC2)c1` it was 1020 s; in that of `COc1cc(NC(=O)N2CCc3c(c(C(=O)N4CCCC4)nn3C)C2)cc(OC)c1`, 693 s; in that of `CCC(C)NC(=O)CSc1nc2nc(C)cc(C)n2n1` (stereo not given), 650 s.
In the case of `CC(C)c1csc(-c2csc(S(=O)(=O)NCc3ccc(Cl)cc3)c2)n1` it was 1160 s; in that of `Cc1nn(-c2nc(-c3ccc(F)cc3)cs2)c(C)c1CC(=O)N1CCCCCC1`, 1210 s; in that of `Cc1cccc(-c2noc(C3CCCN3S(=O)(=O)c3c(C)cc(C)cc3C)n2)c1` (stereo not given), 1340 s.
With `COc1ccc(N2C(=O)NC3CC2(C)Oc2ccc(OC)cc23)cc1` (stereo not given) the figure was 765 s; with `Cc1cc(N(C)C)nc(NCCNC(=O)C2CCCC2)n1`, 545 s; with `CCCNc1nccn(C(C)C)c1=O`, 544 s.
The molecule `CN1CCCC1c1nc(C2CN(S(=O)(=O)Cc3ccccc3F)C2)no1` (stereo not given) gave an RP-LC retention time of 626 s.
With `CC(C)(C)c1cc(N)n(C2CCS(=O)(=O)C2)n1` (stereo not given) the figure was 623 s; with `CCCN(CC1CCOC1)C(=O)c1ccccc1Br` (stereo not given), 801 s.
The molecule `Cc1cccc(S(=O)(=O)N2CCC(OCc3nc(C)no3)CC2)c1` registered an RP-LC retention time of 886 s.
On to `CCc1nc(-c2csc(S(=O)(=O)N3CCC(C(=O)NCc4cccc(C)c4)CC3)c2)no1`, for which the RP-LC retention time came out at 970 s.
With `O=C(NCc1cccc(F)c1)C1CCCN(c2nnc3ccc(Cl)cn23)C1` (stereo not given) the figure was 645 s.
In the case of `Cc1ccc(NC(=O)c2cn(C)nc2S(=O)(=O)N2CCSCC2)cc1` it was 928 s; in that of `COc1ccc(-n2c(=O)c3sccc3n(Cc3nc(-c4ccc(F)cc4)no3)c2=O)cc1`, 964 s; in that of `O=C(NCc1ccc(F)cc1)Nc1ccc2c(c1)CCN2S(=O)(=O)c1ccccc1`, 904 s.
With `C=CCN1C(=O)COc2ccc(-c3nc(NC(C)=O)sc3C)cc21` the figure was 787 s; with `CCOC(=O)c1c(S(=O)(=O)N2CCC(C(=O)Nc3ccccc3OC)CC2)c(C)n(CC)c1C`, 891 s; with `COc1ccc(N(Cc2nnc3n2CCCCC3)C(=O)Nc2cccc(OC)c2)cc1`, 714 s.
For `CCC(C)NC(=O)Cn1c(=O)c(=O)n(CC)c2ncccc21` (stereo not given), the RP-LC retention time stood at 618 s.
In the case of `O=c1ccc(-n2ccnc2)nn1CCNS(=O)(=O)Cc1cc(F)ccc1F` it was 555 s; in that of `Cc1ccc(CNC(=O)N2CCC(N3CCN(Cc4cccc(F)c4)C(=O)C3=O)CC2)cc1`, 757 s; in that of `Cc1cccc(CN2CCCn3nc(C(=O)NCCCOC(C)C)cc3C2=O)c1`, 842 s.
With `CCOC(=O)C1CCCN(c2c(N3CCC(Cc4ccccc4)CC3)c(=O)c2=O)C1` (stereo not given) the figure was 986 s.
With `CCCNC(=O)C1CCCN(c2ccc(SCC(=O)Nc3ccc(F)cc3)nn2)C1` (stereo not given) the figure was 668 s; with `CC(C)NC(=O)c1ccc(OCC2CCN(C(=O)c3ccc(Br)o3)CC2)cc1`, 878 s.
`Cc1cc(-c2nnc(NC(=O)c3ccn(C)n3)o2)c(C)o1` registered an RP-LC retention time of 654 s.
As to `CCc1nnc(-c2ccc3ccn(CC(=O)N4CCN(c5ccc(F)cc5)CC4)c3c2)o1`, the RP-LC retention time came out at 878 s.
Turning to `CCn1c(=O)c2ccccc2n(Cc2nc(-c3ccc4c(c3)OCO4)no2)c1=O`, the RP-LC retention time is 960 s.
In the case of `CCOc1ccc(CN2CC(N(Cc3ccncc3)S(C)(=O)=O)C2)cc1` it was 560 s; in that of `Cn1c(=O)n(CC(=O)O)c(=O)c2c1nc1n2CCN1c1ccc(F)cc1`, 704 s; in that of `Cc1ccc(-n2c(=O)n(CC(=O)Nc3ccccc3C)c3cccnc32)cc1`, 865 s.
In the case of `O=C(c1ccc(Br)o1)N1CCN(c2ccc(=O)n(-c3cccc(Cl)c3)n2)CC1` it was 878 s; in that of `COc1ccc(N2CCN(c3ncccc3-c3nc(C)no3)CC2)cc1`, 736 s.
With `CCOC(=O)c1oc2ccccc2c1NC(=O)C1CCN(S(C)(=O)=O)CC1` the figure was 762 s; with `COc1ccc(CCNC(=O)N2CC(c3nc(-c4cccs4)no3)C2)cc1`, 773 s; with `O=C(c1cnccn1)N1CCC2(CC1)CC(OCC1CC1)CCO2` (stereo not given), 694 s.
In turn, `Cc1ccc(CNC(=O)c2nnc(-c3ccc(S(=O)(=O)N4CCCC4)cc3)o2)cc1` displayed an RP-LC retention time of 940 s.
In the case of `CC(C)NC(=O)N1CCC(c2nc(C(C)C)cs2)CC1` it was 766 s.
The molecule `CCN1CCCn2cc(S(=O)(=O)N3CCN(Cc4ccccc4)CC3)cc2C1=O` gave an RP-LC retention time of 587 s.
With `COc1ccc(C)cc1Nc1c(C(=O)N2CCCC2)cnc2nc(C)ccc12` the figure was 601 s.
With `CCC(Oc1ccc(=O)n(-c2cc(Cl)ccc2C)n1)C(=O)NCCOC` (stereo not given) the figure was 698 s.
`O=C(NCc1ccc2c(c1)OCO2)C1CC(=O)N(c2ccc3c(c2)CCN3C(=O)C2CC2)C1` (stereo not given): the RP-LC retention time is 714 s.
For `CCC1(O)CCOC2(CCN(Cc3ccncc3F)CC2)C1` (stereo not given), the RP-LC retention time amounted to 554 s.
With `O=C(Cn1c2ccccc2c2ncn(Cc3nc(C4CC4)no3)c(=O)c21)Nc1ccc2c(c1)OCCO2` the figure was 808 s; with `Cc1cc(C)n(C(=O)c2cn(-c3ccc(S(=O)(=O)N4CCCC(C)C4)cn3)cn2)n1` (stereo not given), 1020 s; with `Cc1nn(-c2ccccc2)c(C)c1S(=O)(=O)N1CCC(C(=O)NCc2ccc(Cl)cc2)CC1`, 966 s.
With `O=C(COc1ccc(F)cc1)N1CCN(c2nc(CN3CCCCC3)cs2)CC1` the figure was 655 s.
Turning to `CCc1noc(-c2nnn3c2COC(c2ccc(OC)cc2)C3)n1` (stereo not given), the RP-LC retention time came out at 941 s.
In the case of `Cc1ccc(NC(=O)Cn2c(N3CCCC3)nc(C)cc2=O)cc1` it was 636 s; in that of `O=C(Cn1ccn2nc(-c3ccc(F)cc3)c(CO)c2c1=O)NCCC1=CCCCC1`, 900 s.
With `Cc1nc(NC(=O)C2CCCN(c3ccc(-n4cccn4)nn3)C2)sc1C` (stereo not given) the figure was 699 s; with `CCOC(=O)N1CCN(C(=O)CSc2nnc3n2CCN3c2ccc(OC)cc2)CC1`, 623 s.
In the case of `COc1ccc(C(=O)CN(Cc2ccccc2)C2=NCCS2)cc1` it was 600 s.
`CC(C)NC(=O)C1Cn2cccc2C(=O)N1C` (stereo not given) gave an RP-LC retention time of 651 s.
With `O=C(NCc1ccccn1)C1CCN(c2cnc(N3CCCC3)nc2)CC1` the figure was 547 s; with `COc1ccccc1N1CCN(c2ncc(S(=O)(=O)c3ccccc3)c(N)n2)CC1`, 903 s.
With `O=C(NC1CCN(c2cc(-c3ccc(F)cc3)[nH]n2)C1)c1cccc(OC(F)(F)F)c1` (stereo not given) the figure was 840 s; with `Cc1cc(NC(=O)C(C)Oc2ccc(-c3cnc4ccccc4n3)cc2)no1` (stereo not given), 890 s; with `O=c1n(Cc2ccc3c(c2)OCO3)nc2c(S(=O)(=O)N3CCCCCC3)cccn12`, 921 s.
The molecule `CO/N=C1/CN(c2nc3c(cc2F)c(=O)c(C(=O)O)cn3C2CC2)CC1CN` (stereo not given) came in with an RP-LC retention time of 636 s.
In the case of `O=C(NC1CCCCCCC1)C1CCN(S(=O)(=O)c2cc(-c3noc(C4CC4)n3)cs2)CC1` it was 1100 s; in that of `Cc1cccc(Sc2nccnc2N2CCCC(C(=O)NCCC(C)C)C2)c1` (stereo not given), 1140 s.
In the case of `Cc1nc(-c2cc(S(=O)(=O)Nc3ccc(Cl)cc3F)c(C)s2)cs1` it was 1030 s; in that of `O=C(CN1C(=O)NC2(CCCCC2)C1=O)Nc1ccc(F)cc1`, 731 s; in that of `O=S(=O)(Nc1cccc(C(F)(F)F)c1)c1ccc2c(c1)-c1oncc1CO2`, 998 s.
With `CCS(=O)(=O)N1CC(=O)N(c2ccc(F)cc2C)C(C)(C(=O)NCc2ccccc2)C1` (stereo not given) the figure was 818 s.
